Laboratory results as given in paper PMC8434109, “Synthesis and Biological Activity of a Cytostatic Inhibitor of MLLr Leukemia Targeting the DOT1L Protein” (Molecules, 2021).

Columns and labels:
MV4-11 cells (MLL-AF4) = assay: Cell proliferation and viability, trypan blue counting; assay type: cell-based, human; settings: Homo sapiens, 360 h; MV4-11 (AF4), 15-day treatment; read-out: EC50 of the proliferation inhibition
[1] = test system: HOXA9 and MEIS1 expression in MV4-11, MOLM13 and KOPN8 cells; assay: Quantitative real-time PCR of MLL target genes; assay type: cell-based, human; settings: 0.1, 0.32, 1 and 3.2 µM; 6 days MV4-11 and MOLM13, 10 days KOPN8
Description: We then investigated the impact of the inhibition of H3K79me2 in MLLr cells on the expression of the pro-leukemic genes, HOXA9 and MEIS1. These are MLL target genes and have been characterized for being activated by the aberrant H3K79 methylation by DOT1L recruited at these genes by the MLL-fusion proteins and inhibited by DOTL1 inhibitors. […] The difference in kinetics is related to the doubling time of the cells (Table 1), indeed, we measured that the doubling time of MV4-11 is 12 h while the doubling time for MOLM-13 is 22 h.
The non-adherent cell lines MV4-11, MOLM-13, and KOPN8 exponentially growing cells were plated in 12-well plates (1 plate for each experiment) at a rate of 500,000 cells per well at a final volume of 2 mL. The cells were incubated in the presence of increasing inhibitor concentrations (0.1, 0.32, 1, 3.2, 10 µM). […]
Total RNA was isolated from the cell pellet of at least 1 × 10^6 cells using the RNAeasy mini kit (Cat No.: 74106, Qiagen) according to the manufacturer’s instructions. […] Complementary DNA (cDNA) was diluted at 1:10 and used as a template in quantitative real-time PCR (RT-qPCR) using the SYBR Green Master Kit (ref. 047516001, Roche, Boulogne-Billancourt, France) and LightCycler®480 (Roche, Boulogne-Billancourt, France) System according to the manufacturer’s instructions. […]

MV4-11 cells = assay: Flow cytometry cell cycle analysis (propidium iodide); assay type: cell-based, human; settings: for percentage of cells in the G0/G1 phase / percentage of cells in the S phase: MV4-11, 3.2 µM
Description: A decrease in the S phase of the cell cycle was also observed from 24% (day 8) to 20% (day 10), 13% (day 12).
In a 12-well plate, 2 mL exponentially growing MV4-11 cells were plated with a density of 2 × 10^5 cells/mL. […] Culture media and drugs were replaced every 2–3 days and cells were split back to a density of 2 × 10^5 cells/mL at the same time. Cells were harvested on days 8, 10, 12 and split to allow the analysis of cell cycle and Annexin V staining simultaneously. The apoptosis ratio was detected by an Annexin V-APC/7-AAD double staining assay (SONY 3804610) and cells were prepared according to the manufacturer’s recommendations. Cells for the cell cycle analysis were collected by centrifugation at 500× g for 5 min at 4 °C. The pellets were washed once with cold PBS and then fixed with 70% ethanol on ice for 30 min. Afterwards, the cells were washed once with cold PBS and stained with propidium iodide (Invitrogen P3566) for 30 min at 37 °C. Samples were measured using an Attune NxT acoustic focusing cytometer (Life Technologies), data were analyzed by FlowJo.

EZH2 Complex = target: T1, EZH2 Complex (Homo sapiens, UniProt Q15910); assay: HMT selectivity panel (Reaction Biology); assay type: biochemical; settings: substrate Core Histone, read-out: Enzyme % Activity (relative to DMSO controls)
T1 construct: purchased Reaction Biology
T1 sequence (Q15910 2-746 limits assumed): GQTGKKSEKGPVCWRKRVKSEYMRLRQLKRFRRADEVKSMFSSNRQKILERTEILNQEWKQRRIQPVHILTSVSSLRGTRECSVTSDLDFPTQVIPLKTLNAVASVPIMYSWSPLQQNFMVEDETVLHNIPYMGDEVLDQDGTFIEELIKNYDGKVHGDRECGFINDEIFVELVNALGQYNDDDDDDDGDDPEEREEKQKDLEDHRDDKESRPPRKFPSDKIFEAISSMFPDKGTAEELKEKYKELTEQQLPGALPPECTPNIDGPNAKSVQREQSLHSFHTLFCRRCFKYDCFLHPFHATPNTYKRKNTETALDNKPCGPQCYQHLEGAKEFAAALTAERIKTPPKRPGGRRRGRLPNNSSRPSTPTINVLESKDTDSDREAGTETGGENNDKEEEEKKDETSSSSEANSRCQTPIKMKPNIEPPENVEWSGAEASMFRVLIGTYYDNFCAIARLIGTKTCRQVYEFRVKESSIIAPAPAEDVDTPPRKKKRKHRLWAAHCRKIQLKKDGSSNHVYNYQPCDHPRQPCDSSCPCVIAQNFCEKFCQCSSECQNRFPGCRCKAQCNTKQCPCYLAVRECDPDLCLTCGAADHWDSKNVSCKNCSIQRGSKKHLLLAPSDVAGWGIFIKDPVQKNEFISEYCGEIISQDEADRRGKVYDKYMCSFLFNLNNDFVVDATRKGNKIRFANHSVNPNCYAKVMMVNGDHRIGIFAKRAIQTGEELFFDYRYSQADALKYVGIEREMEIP
T1 sequence (O75530 2-441 partner limits assumed): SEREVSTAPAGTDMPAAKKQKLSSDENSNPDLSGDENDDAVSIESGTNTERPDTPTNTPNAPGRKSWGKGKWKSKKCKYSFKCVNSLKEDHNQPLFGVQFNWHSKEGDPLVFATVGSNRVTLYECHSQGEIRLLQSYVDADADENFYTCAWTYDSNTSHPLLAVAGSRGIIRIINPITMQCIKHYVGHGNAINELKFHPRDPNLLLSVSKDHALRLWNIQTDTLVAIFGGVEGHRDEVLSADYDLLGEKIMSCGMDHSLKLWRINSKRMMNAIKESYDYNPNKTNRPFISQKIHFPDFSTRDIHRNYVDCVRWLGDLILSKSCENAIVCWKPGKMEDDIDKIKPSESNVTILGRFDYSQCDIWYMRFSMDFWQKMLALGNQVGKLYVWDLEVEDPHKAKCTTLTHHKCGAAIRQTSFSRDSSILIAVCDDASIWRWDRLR
T1 sequence (Q15022 2-739 partner limits assumed): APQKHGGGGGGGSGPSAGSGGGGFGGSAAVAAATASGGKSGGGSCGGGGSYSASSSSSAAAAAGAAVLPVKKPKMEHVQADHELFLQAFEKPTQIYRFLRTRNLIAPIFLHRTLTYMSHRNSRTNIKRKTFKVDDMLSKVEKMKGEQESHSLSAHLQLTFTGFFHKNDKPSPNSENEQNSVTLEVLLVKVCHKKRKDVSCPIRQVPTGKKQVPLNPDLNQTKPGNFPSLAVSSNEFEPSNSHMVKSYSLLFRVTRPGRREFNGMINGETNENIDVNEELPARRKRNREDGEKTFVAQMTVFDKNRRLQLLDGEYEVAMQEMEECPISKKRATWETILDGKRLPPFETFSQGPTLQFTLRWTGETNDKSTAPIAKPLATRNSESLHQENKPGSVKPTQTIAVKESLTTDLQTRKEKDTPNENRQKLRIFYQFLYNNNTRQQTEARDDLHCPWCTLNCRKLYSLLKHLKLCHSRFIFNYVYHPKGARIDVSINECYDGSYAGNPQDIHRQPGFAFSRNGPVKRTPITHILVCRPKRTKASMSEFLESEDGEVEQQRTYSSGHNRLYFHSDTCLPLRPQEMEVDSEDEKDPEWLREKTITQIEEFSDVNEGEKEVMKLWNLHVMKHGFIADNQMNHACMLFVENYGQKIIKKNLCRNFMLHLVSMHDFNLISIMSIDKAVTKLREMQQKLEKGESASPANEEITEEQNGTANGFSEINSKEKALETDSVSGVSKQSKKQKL
T1 sequence (Q09028 2-425 partner limits assumed): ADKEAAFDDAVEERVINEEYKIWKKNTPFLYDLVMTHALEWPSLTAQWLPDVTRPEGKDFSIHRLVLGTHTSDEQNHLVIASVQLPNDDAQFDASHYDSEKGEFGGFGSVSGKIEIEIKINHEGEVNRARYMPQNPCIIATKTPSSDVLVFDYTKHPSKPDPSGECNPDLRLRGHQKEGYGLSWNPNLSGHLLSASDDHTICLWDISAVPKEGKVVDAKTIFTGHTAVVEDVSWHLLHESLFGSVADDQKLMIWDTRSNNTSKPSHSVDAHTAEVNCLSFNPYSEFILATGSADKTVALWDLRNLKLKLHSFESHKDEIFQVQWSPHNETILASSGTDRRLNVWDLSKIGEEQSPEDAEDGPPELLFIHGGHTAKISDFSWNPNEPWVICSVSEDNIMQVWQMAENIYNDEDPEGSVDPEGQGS
T1 sequence (Q6ZN18 whole entry partner): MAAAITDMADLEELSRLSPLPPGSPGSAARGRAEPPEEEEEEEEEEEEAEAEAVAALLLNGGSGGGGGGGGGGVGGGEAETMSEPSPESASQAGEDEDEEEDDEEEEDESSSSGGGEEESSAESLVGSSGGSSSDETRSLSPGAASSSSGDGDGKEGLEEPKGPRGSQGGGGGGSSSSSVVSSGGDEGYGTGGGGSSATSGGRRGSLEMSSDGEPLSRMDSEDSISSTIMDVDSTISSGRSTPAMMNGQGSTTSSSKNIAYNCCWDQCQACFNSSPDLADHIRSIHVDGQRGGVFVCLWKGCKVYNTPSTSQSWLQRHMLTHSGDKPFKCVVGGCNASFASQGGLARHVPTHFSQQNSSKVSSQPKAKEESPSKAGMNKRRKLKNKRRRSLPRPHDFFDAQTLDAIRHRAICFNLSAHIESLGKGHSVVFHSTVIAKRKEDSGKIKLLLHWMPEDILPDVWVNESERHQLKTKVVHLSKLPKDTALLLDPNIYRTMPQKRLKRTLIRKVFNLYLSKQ
Description: (§1) Table S1: Selectivity of the compound on a HMT panel (by Reaction Biology, USA) and on hDNMT3Acat (as described in Ceccaldi
(§2) Enzyme % Activity (relative to DMSO
(§3) Testing Concentration 10µM
(§4) Methyltransferase: Substrate: Activity enzyme in %

PRMT6 = target: T2, PRMT6 (Homo sapiens, UniProt Q96LA8); assay: HMT selectivity panel (Reaction Biology); assay type: biochemical; settings: substrate GST-GAR, read-out: Enzyme % Activity (relative to DMSO controls)
T2 construct: purchased Reaction Biology
T2 sequence (Q96LA8 whole entry): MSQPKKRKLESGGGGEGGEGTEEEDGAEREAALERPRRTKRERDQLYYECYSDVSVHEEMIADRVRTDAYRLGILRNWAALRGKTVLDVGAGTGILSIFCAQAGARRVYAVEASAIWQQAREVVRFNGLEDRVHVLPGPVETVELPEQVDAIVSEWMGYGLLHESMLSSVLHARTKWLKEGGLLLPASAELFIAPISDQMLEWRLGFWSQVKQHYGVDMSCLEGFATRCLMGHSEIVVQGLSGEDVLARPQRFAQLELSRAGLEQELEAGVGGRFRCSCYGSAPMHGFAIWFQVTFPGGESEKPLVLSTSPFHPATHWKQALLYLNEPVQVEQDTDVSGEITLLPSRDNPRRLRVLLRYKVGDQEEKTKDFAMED
Description: as §1, §2, §3, §4

SMYD2 = target: T3, SMYD2 (Homo sapiens, UniProt Q9NRG4); assay: HMT selectivity panel (Reaction Biology); assay type: biochemical; settings: substrate Histone H4, read-out: Enzyme % Activity (relative to DMSO controls)
T3 construct: purchased Reaction Biology
T3 sequence (Q9NRG4 whole entry): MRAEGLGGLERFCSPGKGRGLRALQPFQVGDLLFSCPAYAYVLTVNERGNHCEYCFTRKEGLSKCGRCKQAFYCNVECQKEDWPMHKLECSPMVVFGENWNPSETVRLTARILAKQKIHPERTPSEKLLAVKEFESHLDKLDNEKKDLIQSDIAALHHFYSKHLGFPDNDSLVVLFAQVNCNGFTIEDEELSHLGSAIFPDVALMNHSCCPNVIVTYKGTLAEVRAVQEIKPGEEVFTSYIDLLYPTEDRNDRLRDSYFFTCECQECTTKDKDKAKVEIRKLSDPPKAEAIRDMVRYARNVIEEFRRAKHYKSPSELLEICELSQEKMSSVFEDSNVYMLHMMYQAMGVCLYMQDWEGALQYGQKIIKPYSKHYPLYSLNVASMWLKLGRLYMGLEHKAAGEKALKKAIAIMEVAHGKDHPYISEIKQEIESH
Description: as §1, §2, §3, §4

[2] = test system: histone marks H2R2me2S, H3K4me3, H3K9me2, H4K20me2, H4K20me3, H3K9me1, H3K36me1; assay: Selectivity on histone marks by fluorescence microscopy HCS; assay type: cell-based; settings: 7 tested histone marks other than H3K79me2
Description: This difference in the mechanism was further confirmed by flow cytometry analysis of the impact of the compounds on the cell cycle and apoptosis.
as §1, §2, §3, §4
EZH2 Complex Core Histone 86±1
Figure S4. Selectivity evaluation of the compound Dia-2 by fluorescence microscopy HCS. A) fluorescence imaging of the
H3K79me2 mark B) bar diagram of the percentage of inhibition for compound Dia-2.
(1 picture or pasted object on this page, not shown here)

## CC(C)[C@H](CCCNC(=O)Nc1ccc(C(C)(C)C)cc1)N[C@H]1C[C@@H](n2cnc3c(N)ncnc32)[C@H](O)[C@@H]1O [Dia2, 1-((S)-4-(((1S,2R,3S,4R)-4-(6-amino-9H-purin-9-yl)-2,3-dihydroxycyclopentyl)amino)-5-methylhexyl)-3-(4-(tert-butyl)phenyl)urea]
MV4-11 cells (MLL-AF4)
  EC50: 93 ± 4 nM
[1]
  MEIS1 and HOXA9 expression: decrease in a dose-dependent manner
MV4-11 cells; MV4-11, 1 µM
  effect on the cell cycle: does not affect the cell cycle
MV4-11 cells; day 8
  percentage of cells in the G0/G1 phase: 53%
  percentage of cells in the S phase: 24%
MV4-11 cells; day 10
  percentage of cells in the G0/G1 phase: 41%
  percentage of cells in the S phase: 20%
MV4-11 cells; day 12
  percentage of cells in the G0/G1 phase: 24%
  percentage of cells in the S phase: 13%
EZH2 Complex
  remaining activity at 10 µM: 86 ± 1%
PRMT6
  remaining activity at 10 µM: 95 ± 1%
SMYD2
  remaining activity at 10 µM: 92 ± 1%
[2]
  effect on other histone marks in cells: does not affect the other 7 tested histone marks
